Laboratory results taken from US7504517B2, “Kv1.5 potassium channel inhibitors” (Wyeth, priority 2006, dated 2009).

Legend:
Kv1.5 = target: T1, Kv1.5 (Homo sapiens, UniProt P22460); assay: Kv1.5 Patch Clamp EP; type: cell-based; settings: whole cell patch clamp; for IC50: HEK or LTK- cells, at least four concentrations, n=3
T1 construct: expressed in transfected cells; host or cells: HEK or LTK- cells
Method: The external solution is standard Tyrodes solution. […] Inhibition was measured at the end of the 1 second pulses and expressed relative to controls. Initial Kv1.5 inhibition is estimated by single point determinations done at 1 μM.

L-type calcium channels = assay: FLIPR L-Type Calcium Channel Assay; type: cell-based, murine; settings: HL-1 cells expressing endogenous L-type calcium channels; calcium influx after 20 mM KCl; read-out: L-type Ca^2+ IC50
Method: 50 μL per well test compounds are added to the plates and further incubated for 15 min. in a 5% CO2 37° C. incubator. All final solutions contain the anion exchange inhibitor, probenecid (2.5 mM). The 96-well plates are then placed in the center position of the FLIPR 1 (Fluorometric Imaging Plate Reader, Molecular Devices Corporation). Cell monolayers in each well are simultaneously illuminated at 488 nm with an Argon ion laser, and fluorescence emission is monitored using a 510-570 nm bandpass filter and a cooled CCD camera. To depolarize the plasma membrane and activate L-type calcium channels, 50 μL per well of 20 mM KCl (final concentration) are dispensed simultaneously to all 96 wells using the FLIPR's automatic 96-well pipettor. Fluorescence measurements are captured for 5 min. following KCl addition. Calcium influx, expressed as % control, is calculated for each concentration of test compound and concentration-response curves and IC50 values are generated using GraphPad Prism 4.0.

HERG = HERG (Homo sapiens, UniProt Q12809); assay: HERG Patch Clamp EP; settings: for inhibition at 10 µM: human, HEK cells stably overexpressing HERG
Method: HERG currents are recorded by the whole cell mode of patch clamp electrophysiology as described by Hamill et al.^3 HERG is stably over expressed in HEK cells. Microelectrodes are pulled from borosilicate glass (TW150) and heat polished (tip resistance, 1.5 to 3 megaohms). The external solution is standard Tyrodes solution. The internal (microelectrode) solution contained: 110 mM KCl, 5 mM K2ATP, 5 mM K4BAPTA, 1 mM MgCl2 and 10 mM HEPES, adjusted to pH 7.2 with KOH. […] Compounds are prepared as 10-20 mM DMSO stocks and diluted to appropriate test concentrations. […] Inhibition of HERG is measured at the peak of the tail currents and expressed relative to controls. Initial HERG activity is estimated by single point determinations run at 10 μM. Concentration response curves are generated for appropriate compounds utilizing at least four concentrations and an n=3. Curve fitting and IC50 estimating are done using Graphpad software (Ver. 4). • 1.

[1] = 1.0 μM, single point, Kv1.5 stably over expressed in HEK or LTK- cells

T1 sequence (P22460 whole entry): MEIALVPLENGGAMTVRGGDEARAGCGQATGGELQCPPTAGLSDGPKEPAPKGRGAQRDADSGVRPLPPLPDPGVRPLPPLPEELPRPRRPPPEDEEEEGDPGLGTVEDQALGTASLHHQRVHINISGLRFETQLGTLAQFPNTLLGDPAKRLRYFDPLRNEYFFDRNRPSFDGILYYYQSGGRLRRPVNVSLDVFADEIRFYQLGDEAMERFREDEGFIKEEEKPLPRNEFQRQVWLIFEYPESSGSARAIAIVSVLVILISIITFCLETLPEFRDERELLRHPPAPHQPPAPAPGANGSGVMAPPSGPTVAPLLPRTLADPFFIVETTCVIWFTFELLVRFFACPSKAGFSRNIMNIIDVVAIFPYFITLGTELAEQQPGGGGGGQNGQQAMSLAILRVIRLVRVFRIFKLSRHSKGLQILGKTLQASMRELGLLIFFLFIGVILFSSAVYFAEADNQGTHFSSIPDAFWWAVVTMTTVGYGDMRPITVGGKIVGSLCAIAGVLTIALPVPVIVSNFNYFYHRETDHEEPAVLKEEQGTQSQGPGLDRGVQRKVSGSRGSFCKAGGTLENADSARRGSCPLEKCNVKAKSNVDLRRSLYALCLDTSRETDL
Chain of HERG (Q12809 whole entry): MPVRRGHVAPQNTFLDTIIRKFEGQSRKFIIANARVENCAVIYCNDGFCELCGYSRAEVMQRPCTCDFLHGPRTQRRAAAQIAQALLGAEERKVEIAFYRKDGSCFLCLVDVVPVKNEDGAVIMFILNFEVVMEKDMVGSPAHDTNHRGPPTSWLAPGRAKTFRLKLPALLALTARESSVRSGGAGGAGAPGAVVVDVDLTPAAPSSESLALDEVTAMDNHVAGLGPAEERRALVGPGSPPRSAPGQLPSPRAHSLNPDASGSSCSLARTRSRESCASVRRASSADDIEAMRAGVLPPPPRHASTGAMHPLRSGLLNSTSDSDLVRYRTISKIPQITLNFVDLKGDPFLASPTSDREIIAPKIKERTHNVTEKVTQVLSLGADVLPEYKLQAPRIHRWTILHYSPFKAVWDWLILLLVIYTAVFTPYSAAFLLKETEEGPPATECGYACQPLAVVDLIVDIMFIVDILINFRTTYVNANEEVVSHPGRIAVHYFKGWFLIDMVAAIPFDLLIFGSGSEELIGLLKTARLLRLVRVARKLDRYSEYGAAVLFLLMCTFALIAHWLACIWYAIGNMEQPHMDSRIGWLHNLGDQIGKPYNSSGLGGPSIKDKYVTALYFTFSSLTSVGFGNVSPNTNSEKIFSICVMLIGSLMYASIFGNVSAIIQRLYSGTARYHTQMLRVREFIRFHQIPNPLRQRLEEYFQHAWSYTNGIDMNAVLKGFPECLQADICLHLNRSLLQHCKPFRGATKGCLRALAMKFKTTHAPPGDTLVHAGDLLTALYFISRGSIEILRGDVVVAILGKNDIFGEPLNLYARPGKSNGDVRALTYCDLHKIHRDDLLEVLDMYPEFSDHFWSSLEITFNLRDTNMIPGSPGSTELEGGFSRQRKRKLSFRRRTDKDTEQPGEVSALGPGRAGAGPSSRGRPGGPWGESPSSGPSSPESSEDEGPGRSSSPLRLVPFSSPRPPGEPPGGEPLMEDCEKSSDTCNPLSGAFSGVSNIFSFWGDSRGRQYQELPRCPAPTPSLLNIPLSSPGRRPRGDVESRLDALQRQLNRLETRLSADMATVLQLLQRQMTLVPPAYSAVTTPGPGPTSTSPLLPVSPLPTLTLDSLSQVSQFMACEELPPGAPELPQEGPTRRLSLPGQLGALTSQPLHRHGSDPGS

inhibition at 1 µM (Kv1.5; [1]) | IC50 (L-type calcium channels) | IC50 (Kv1.5) | Kv1.5% inhibition @ 1.0 μM (Kv1.5; [1]) | Structure (SMILES) | inhibition at 10 µM (HERG) | IC50 (HERG) | HERG % Inhib. @ 10 μM (HERG; 10 μM, single point, whole cell patch clamp, HERG stably over expressed in HEK cells, peak tail current)
95% | 13 µM | – | – | COc1ccc(CCN2C(=O)N(NS(C)(=O)=O)CC2Cc2ccc(C(C)(C)C)cc2)cc1 (stereo not drawn) [Compound 11, 1-(Methylsulfonylamino)-3-[2-(4-methoxyphenyl)ethyl]-4-[(4-tert-butyl)benzyl]-2-imidazolidinone] | 45% | – | –
82% | 38 µM | – | – | COc1ccc(CCN2C(=O)N(NS(C)(=O)=O)CC2c2ccc(OC)c(C)c2)cc1 (stereo not drawn) [Compound 12, 1-(Methylsulfonylamino)-3-[2-(4-methoxyphenyl)ethyl]-4-[(3-methyl-4-methoxy)phenyl]-2-imidazolidinone] | 19% | – | –
83% | 27 µM | – | – | COc1ccc(CCN2C(=O)N(NS(C)(=O)=O)CC2c2ccc(C)c(OC)c2)cc1 (stereo not drawn) [Compound 13, 1-(Methylsulfonylamino)-3-[2-(4-methoxyphenyl)ethyl]-4-[(3-methoxy-4-methyl)phenyl]-2-imidazolidinone] | 10% | – | –
89% | 40 µM | – | – | COc1ccc(CCN2C(=O)N(NS(C)(=O)=O)CC2c2ccc3c(c2)OCCO3)cc1 (stereo not drawn) [Compound 17, 1-(Methylsulfonylamino)-3-[2-(4-methoxyphenyl)ethyl]-4-[(2,3-dihydro-benzo[1,4]dioxin-6-yl)]-2-imidazolidinone] | 22% | – | –
59% | 24 µM | – | – | COc1ccc(CCN2C(=O)N(NS(C)(=O)=O)CC2c2ccc3c(c2)OC(C)(C)O3)cc1 (stereo not drawn) [Compound 18, 1-(Methylsulfonylamino)-3-[2-(4-methoxyphenyl)ethyl]-4-(2,2-dimethylbenzo-[1,3]dioxol-5-yl)-2-imidazolidinone] | 12% | – | –
73% | 30 µM | – | – | COc1ccc(CCN2C(=O)N(NS(C)(=O)=O)CC2c2ccc(C)cc2)cc1 (stereo not drawn) [Compound 20, 1-(Methylsulfonylamino)-3-[(4-methoxyphenyl)ethyl]-4-(4-methylphenyl)-2-imidazolidinone] | 15% | – | –
66% | 30 µM | 703 nM | – | COc1ccc(CCN2C(=O)N(NS(C)(=O)=O)CC2c2ccc(OC)cc2)cc1 (stereo not drawn) [Compound 23, 1-(Methylsulfonylamino)-3-[2-(4-methoxyphenyl)ethyl]-4-(4-methoxyphenyl)-2-imidazolidinone] | 21% | 23.6 µM | –
82% | 10 µM | 514 nM | – | COc1ccc(CCN2C(=O)N(NS(C)(=O)=O)CC2c2ccc(C(C)(C)C)cc2)cc1 (stereo not drawn) [Compound 24, 1-(Methylsulfonylamino)-3-[(4-methoxyphenyl)ethyl]-4-[4-(tert-butyl)phenyl]-imidazolidinone] | 74% | 6.4 µM | –
84% | 28 µM | – | – | CCN(CC)c1ccc(C2CN(NS(C)(=O)=O)C(=O)N2CCc2ccc(OC)cc2)cc1 (stereo not drawn) [Compound 25, 1-(Methylsulfonylamino)-3-[2-(4-methoxyphenyl)ethyl]-4-[(4-diethylamino)-phenyl]-2-imidazolidinone] | 31% | – | –
66% | 17.5 µM | 716 nM | – | COc1ccc(CCN2C(=O)N(NS(C)(=O)=O)CC2c2ccc(OC(F)F)cc2)cc1 (stereo not drawn) [Compound 26, 1-[(Methylsulfonyl)amino]-3-[2-(4-methoxyphenyl)ethyl]-4-(4-difluoro-methoxyphenyl)-2-imidazolidinone] | 76% | 4.1 µM | –
– | 19 µM | – | 56% | COc1ccc(CCN2C(=O)N(NS(C)(=O)=O)CC2c2ccc(OC(F)(F)F)cc2)cc1 (stereo not drawn) [Compound 27, 1-[(Methylsulfonyl)amino]-3-[2-(4-methoxyphenyl)ethyl]-4-(4-trifluoro-methoxyphenyl)-2-imidazolidinone] | – | – | 63%
89% | 16 µM | 184 nM | – | COc1ccc(CCN2C(=O)N(NS(C)(=O)=O)CC2c2ccc(C3CC3)cc2)cc1 (stereo not drawn) [Compound 28, 1-[(Methylsulfonyl)amino]-3-[(4-methoxyphenyl)ethyl]-4-(4-cyclopropylphenyl)-2-imidazolidinone] | 30% | 10.3 µM | –
85% | 34 µM | – | – | COc1ccc(CCN2C(=O)N(NS(=O)(=O)C3CC3)CC2c2ccc(OC)cc2)cc1 (stereo not drawn) [Compound 29, 1-(Cyclopropylsulfonylamino)-3-[(4-methoxyphenyl)ethyl]-4-(4-methoxyphenyl)-2-imidazolidinone] | 31% | – | –
88% | 3.3 µM | – | – | CCCS(=O)(=O)NN1CC(c2ccc(C3CC3)cc2)N(CCc2ccc(OC)cc2)C1=O (stereo not drawn) [Compound 30, 1-(Propylsulfonylamino)-3-[(4-methoxyphenyl)ethyl]-4-(4-cyclopropylphenyl)-2-imidazolidinone] | 62% | – | –
85% | 35 µM | – | – | C=CS(=O)(=O)NN1CC(c2ccc3c(c2)OCCO3)N(CCc2ccc(OC)cc2)C1=O (stereo not drawn) [Compound 33, 1-(Vinylsulfonylamino)-3-[2-(4-methoxyphenyl)ethyl]-4-[(2,3-dihydrobenzo-[1,4]dioxin-6-yl)]-2-imidazolidinone] | 20% | – | –
98% | 18 µM | – | – | COc1ccc(CCN2C(=O)N(NS(=O)(=O)CF)CC2c2ccc(C3CC3)cc2)cc1 (stereo not drawn) [Compound 34, 1-(Fluoromethylsulfonylamino)-3-[2-(4-methoxyphenyl)ethyl]-4-(4-cyclopropyl-phenyl)-2-imidazolidinone] | 38% | – | –
71% | 30 µM | – | – | COc1ccc(CCN2C(=O)N(NS(=O)(=O)CF)CC2c2ccc(OC)cc2)cc1 (stereo not drawn) [Compound 35, 1-(Fluoromethylsulfonylamino)-3-[2-(4-methoxyphenyl)ethyl]-4-(4-methoxy-phenyl)-2-imidazolidinone] | 14% | – | –
85% | 14 µM | – | – | COc1ccc(CCN2C(=O)N(NS(=O)(=O)CF)CC2c2ccc(C(C)(C)C)cc2)cc1 (stereo not drawn) [Compound 36, 1-(Fluoromethylsulfonylamino)-3-[2-(4-methoxyphenyl)ethyl]-4-(4-tert-butyl-phenyl)-2-imidazolidinone] | 50% | – | –
87% | 30 µM | – | – | COc1ccc(CCN2C(=O)N(NS(=O)(=O)CF)CC2c2ccc3c(c2)OCCO3)cc1 (stereo not drawn) [Compound 37, 1-(Fluoromethylsulfonylamino)-3-[2-(4-methoxyphenyl)ethyl]-4-[(2,3dihydro-benzo[b][1,4]dioxin-6-yl)]-2-imidazolidinone] | 6% | – | –
85% | 5.6 µM | – | – | COc1ccc(CCN2C(=O)N(NS(=O)(=O)CC(F)(F)F)CC2c2ccc(C(C)(C)C)cc2)cc1 (stereo not drawn) [Compound 38, 1-(2,2,2-Trifluoroethanesulfonylamino)-4-[4-(tert-butyl)phenyl]-3-[2-(4-methoxyphenyl)ethyl]-2-imidazolidinone] | 56% | – | –
70% | 30 µM | – | – | COc1ccc(CCN2C(=O)N(NS(=O)(=O)CC#N)CC2c2ccc3c(c2)OCCO3)cc1 (stereo not drawn) [Compound 40, 1-(Cyanomethylsulfonylamino)-3-[2-(4-methoxyphenyl)ethyl]-4-[(2,3-dihydro-benzo[b][1,4]dioxin-6-yl)]-2-imidazolidinone] | 1% | – | –
91% | 20 µM | 418 nM | – | COc1ccc(CCN2C(=O)N(NS(=O)(=O)Cc3cccnc3)CC2c2ccc(OC(F)F)cc2)cc1 (stereo not drawn) [Compound 42, 1-[(N-3-Pyridinylmethylsulfonyl)amino]-3-[2-(4-methoxyphenyl)ethyl]-4-(4-difluoromethoxyphenyl)-2-imidazolidinone] | 90% | – | –
93% | 4.3 µM | – | – | COc1ccc(CCN2C(=O)N(NS(=O)(=O)Cc3ccccc3)CC2c2ccc(C)c(C)c2)cc1 (stereo not drawn) [Compound 43, 1-[(Phenylmethyl)sulfonylamino]-3-[2-(4-methoxyphenyl)ethyl]-4-(3,4-dimethyl-phenyl)-2-imidazolidinone] | 2% | – | –
60% | 25 µM | – | – | COc1ccc(CCCN2C(=O)N(NS(N)(=O)=O)CC2c2ccc(OC)cc2)cc1 (stereo not drawn) [Compound 44, 1-(Sulfamoylamino)-3-[3-(4-methoxyphenyl)propyl]-4-[(4-methoxy)phenyl]-2-imidazolidinone] | 22% | – | –
83% | 16 µM | – | – | CS(=O)(=O)NN1CC(c2ccc(C3CC3)cc2)N(CCCc2ccccc2)C1=O (stereo not drawn) [Compound 45, 1-(Methylsulfonylamino)-3-(3-phenylpropyl)-4-(4-cyclopropylphenyl)-2-imidazolidinone] | 55% | – | –
